In US5434136A, “Treatment of motility disorders with a GNRH analog” (priority 1992, dated 1995):

Legend:
[1] = test system: GI disorders secondary to SLE; assay: Treatment of patients with GI disorders secondary to Systemic Lupus Erythematosus: clinical outcome; format: in vivo, human; details: for GI symptoms: within eight weeks
Procedure: Daily treatment with 2.0 mg luprolide acetate (Lupron, Tapp Abbott Pharmaceutical Company) was given daily by subcutaneous injection. […] Treatment with 1.25 mg. of leuprolide acetate (Lupron) was given daily by subcutaneous injection. […] Daily administration of 1.75 mg of luprolide acetate (Lupron) was administered subcutaneously. […] This patient has been hospitalized several times since beginning luprolide acetate therapy for exacerbations of their SLE, but the GI tract has not been a factor. Their debilitating symptoms have been controlled, and they were able to return to work. Daily administration of 1.5 mg of luprolide acetate (Lupron) was given by subcutaneous injection. Within eight weeks of Lupron therapy, their GI symptoms were controlled. […] Daily administration of 1.75 mg luprolide acetate (Lupron) was given subcutaneously. After six months of Lupron therapy, motility recordings were again performed. Ten migrating motor complexes per 12 hour recording session were seen. These complexes were organized and appeared more typical of a controlled tracing, showing normal cycling activity in the stomach and small intestine. […] Their hydrogen breath test was unchanged.

[2] = test system: functional bowel disease (GMD, IIHVN, Roux-en-Y Syndrome); assay: Treatment of five patients with leuprolide acetate: symptoms; format: in vivo, human
From the text: Patients: Four of the five patients tested were women with functional bowel disease: two with gastrointestinal motor dysfunction (GMD), and two with idiopathic intestinal hollow visceral myopathy/neuropathy (IIHVN). The fifth patient had Roux-en-Y Syndrome. All patients had severe, incapacitating symptoms of abdominal pain, nausea, and intermittent vomiting. All had made frequent visits to emergency rooms, had seen many physicians, and undergone multiple tests and surgical procedures, and were unable to maintain their jobs or quality of life. They had been treated with many different drugs, including experimental drugs by protocol. They had difficulty in maintaining body weight, because their symptoms were worsened by eating. The symptoms of the two patients with GMD were abdominal pain located in the right upper quadrant and epigastrium, daily nausea, and intermittent vomiting exacerbated by eating and by the luteal phase of the menstrual cycle. The two patients with IIHVN had abdominal pain, nausea, and intermittent vomiting, and also had urinary tract involvement consisting of pain and a decrease in urination. The fifth patient had Roux-en-Y syndrome (defined as epigastric-to-right-upper-quadrant pain, nausea, and vomiting increased by eating) after surgical construction of a gastro-jejunal Roux-en-Y anastomosis. The mean duration of these symptoms was eight years (Table 1). All subjects had undergone extensive blood testing, several upper gastrointestinal x-ray series, barium enemas, esophagogastroduodenoscopy, endoscopic retrograde cholangiopancreatography, gastric emptying tests with radiolabeled meal, ultrasound of the abdomen, computerized axial tomography of the abdomen, and many other tests. The results of all tests were normal, except for prolonged gastric emptying in the patient with the Roux-en-Y Syndrome. Because of their intractable clinical problem, these patients were included in the test protocol with leuprolide acetate. Protocol: The symptoms of each patient were first assessed, and their tests evaluated. Each patient kept a daily symptom diary. Leuprolide acetate was obtained by prescription as Lupron (TAP pharmaceuticals, Abbott Labs, North Chicago, Ill.). One multi-use vial of Lupron comprised of […] Leuprolide Acetate. A daily dose of 0.5 mg ([…]) was self-administered by subcutaneous injection, for a period of three months. Each patient was examined at 0, 1 and 3 months of treatment. After the third month, leuprolide was continued as previously, and estrogen (0.625 mg orally) and calcium (1000 mg orally) were also administered. At the end of the sixth month, a two week withdrawal period from leuprolide acetate ensued. During this period a 10 mg oral dose of progesterone was given to pre-menopausal patients, to assess recurrence of symptoms and to induce menses. Post-menopausal women were not treated with progesterone during the two week withdrawal period. This procedure was then continued for an additional six months, with drug withdrawal and progesterone given every three months to induce a menstrual cycle. Serum estradiol, progesterone, FSH, and LH were quantitated by radioimmunoassay prior to the initiation of leuprolide treatment, and at three months post treatment initiation.

[3] = SLE patient 1, 2.0 mg daily s.c.
[4] = SLE patient 2, 1.25 mg daily s.c., within approximately eight weeks
[5] = SLE patient 4, 1.5 mg daily s.c.
[6] = Patient 4 (IIHVN), 0.5 mg daily s.c.
[7] = Patient 5 (Roux-en-Y), 0.5 mg daily s.c.

## CCNC(=O)[C@@H]1CCCN1C(=O)[C@H](CCCNC(=N)N)NC(=O)[C@H](CC(C)C)NC(=O)[C@@H](CC(C)C)NC(=O)[C@H](Cc1ccc(O)cc1)NC(=O)[C@H](CO)NC(=O)[C@H](Cc1c[nH]c2ccccc12)NC(=O)[C@H](Cc1c[nH]cn1)NC(=O)[C@@H]1CCC(=O)N1 [Leuprolide acetate, leuprolide acetate]
[1]; [3]
  Compliment levels (C3 and C4): returned to normal
  Hemoglobin, hematocrit, white blood cells and platelets: returned to normal
  Need of Imuran or prednisone to control SLE: no longer required Imuran or prednisone
  GI symptoms: free of the above described GI symptoms
[1]; [4]
  Body weight gained: 15-20 pounds
  Gastrointestinal symptoms: free of gastrointestinal symptoms
[1]; SLE patient 3, 1.75 mg daily s.c., required TPN before
  Oral food intake: able to eat soft, solid food by mouth
[1]; SLE patient 3, 1.75 mg daily s.c.
  GI symptoms: controlled
[1]; [5]
  Nutrition: able to eat and maintain their nutrition on liquid supplements taken by mouth
  GI symptoms: controlled
[1]; SLE patient 4, 1.5 mg daily s.c., oral intake
  Body weight within six months: did not gain weight, but they did not lose weight
[1]; SLE patient 5
  Effectiveness of therapy in an older, post menopausal patient: effective
[1]; SLE patient 5, after six months of therapy
  Eating and body weight: able to eat foods by mouth and gained weight
[2]; Patient 1, 0.5 mg daily s.c.
  Constipation: after leuprolide acetate: Daily formed stools
  Intermittent vomiting: after leuprolide acetate: Abolished
  Nausea, daily: after leuprolide acetate: Decreased considerably
  Pain, RUQ, epigastrium, BLQ: after leuprolide acetate: Abolished
[2]; Patient 2, 0.5 mg daily s.c.
  Constipation, intermittent: after leuprolide acetate: Daily formed stools
  Epigastric to RUQ pain: after leuprolide acetate: Abolished
  Nausea, daily: after leuprolide acetate: Abolished
[2]; Patient 3 (IIHVN)
  Bilateral lower quadrant pain: after leuprolide acetate: Abolished
  Bowel and bladder function after therapy: normal bowel and bladder function
  Epigastric to RUQ pain: after leuprolide acetate: Decreased considerably
  Nausea and vomiting after therapy: subsided
  Nausea, daily: after leuprolide acetate: Abolished
  Obstipation: after leuprolide acetate: Daily formed stools
  Pain on urination: after leuprolide acetate: Abolished
  Remaining abdominal pain under therapy: mild and intermittent abdominal pain
[2]; Patient 3 (IIHVN), total abdominal hysterectomy and bilateral salpingo-oophorectomy
  Overall response: responded dramatically
[2]; Patient 4 (IIHVN)
  Overall outcome: symptom-free
[2]; [6]
  Constipation after ovulation: after leuprolide acetate: Daily formed stools
  Deep boring pain in lower abdomen and rectum: after leuprolide acetate: Abolished
  Urinary difficulty after ovulation: after leuprolide acetate: normal urination
  Urination frequency after leuprolide acetate: 4 to 6 day⁻¹
[2]; Patient 5 (Roux-en-Y)
  Overall outcome: symptom-free
[2]; [7]
  Diarrhea: after leuprolide acetate: Daily formed stools
  Epigastric to RUQ pain: after leuprolide acetate: Abolished
  Intermittent vomiting: after leuprolide acetate: Abolished
  Nausea, daily: after leuprolide acetate: Abolished
  Worsened by eating: after leuprolide acetate: Abolished
[2]; Patient 5 (Roux-en-Y), from 96 to 131 pounds
  Body weight gained: 35 pounds
[2]; all subjects of Example 1, two week withdrawal
  Symptoms after leuprolide treatment was stopped and a progesterone challenge given: recurrent symptoms within three to five days
[2]; human, in vivo
  Debilitating symptoms of patients with Motility Disorders (conclusion of Example 1): successfully reduces or abolishes
[2]; patients with GMD (Patients 1 and 2)
  Overall outcome after treatment: symptom-free
